Patent publication US20230183237A1, “COMPETITIVE AND NONCOMPETITIVE INHIBITORS OF THE MUSCARINIC ACETYLCHOLINE RECEPTOR M5” (Vanderbilt University, priority 2020, published 2023)

target: T1, hM5 (Homo sapiens, UniProt P08912); assay: Calcium mobilization concentration-response (IC50 vs EC80 acetylcholine), CHO hM5; type: cell-based; settings: CELL LINE hM5; calcium mobilization, EC80 acetylcholine addition; read-out: IC50
T1 construct: expressed in transfected cells
T1 sequence (P08912 1-532): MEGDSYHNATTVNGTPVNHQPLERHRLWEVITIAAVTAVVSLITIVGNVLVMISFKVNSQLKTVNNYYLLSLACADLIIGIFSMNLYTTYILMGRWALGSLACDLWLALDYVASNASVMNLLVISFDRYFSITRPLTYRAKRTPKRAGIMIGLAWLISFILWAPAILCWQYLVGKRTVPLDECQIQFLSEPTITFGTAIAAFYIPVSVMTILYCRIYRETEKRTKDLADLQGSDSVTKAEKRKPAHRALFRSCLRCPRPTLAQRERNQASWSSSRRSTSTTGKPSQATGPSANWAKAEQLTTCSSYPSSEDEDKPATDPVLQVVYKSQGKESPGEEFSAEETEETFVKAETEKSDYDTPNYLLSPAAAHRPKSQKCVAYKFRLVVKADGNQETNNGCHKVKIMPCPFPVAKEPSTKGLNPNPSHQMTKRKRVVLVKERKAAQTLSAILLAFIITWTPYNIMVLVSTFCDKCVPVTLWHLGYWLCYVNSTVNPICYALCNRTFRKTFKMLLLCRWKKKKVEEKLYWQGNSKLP
Procedure, shortened: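 CHO cells stably expressing hM5, dye-loaded, in HBSS/20 mM HEPES/2.5 mM probenecid, pH 7.4. Compounds were pre-incubated 140 s before an EC80 acetylcholine challenge, with calcium flux read kinetically.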

| SMILES | IC50 |
| --- | --- |
| COc1ccc(S(=O)(=O)N2CCC(c3nn4ncnc4cc3C)CC2)c(C)c1 [Compound 186, 6-(1-((4-methoxy-2-methylphenyl)sulfonyl)piperidin-4-yl)-7-methyl-[1,2,4]triazolo[1,5-b]pyridazine] | > 10000 nM |
| Cc1cc2nccn2nc1C1CCN(S(=O)(=O)c2ccc3ncsc3c2)CC1 [Compound 38, 6-((4-(7-methylimidazo[1,2-b]pyridazin-6-yl)piperidin-1-yl)sulfonyl)benzo[d]thiazole] | 4200 nM |
| Cc1cc2ncnn2cc1C1CCN(S(=O)(=O)c2cnn(C)c2C(F)F)CC1 [Compound 156, 6-(1-((5-(difluoromethyl)-1-methyl-1H-pyrazol-4-yl)sulfonyl)piperidin-4-yl)-7-methyl-[1,2,4]triazolo[1,5-a]pyridine] | 9.1 nM |
| Cc1cc2ncnn2nc1C1CCN(S(=O)(=O)c2c(C)nn(C)c2Cl)CC1 [Compound 179, 6-(1-((5-chloro-1,3-dimethyl-1H-pyrazol-4-yl)sulfonyl)piperidin-4-yl)-7-methyl-[1,2,4]triazolo[1,5-b]pyridazine] | 66 nM |
| Cc1cc2ncnn2cc1C1=CCN(S(=O)(=O)c2ccc3c(c2)C(C)CO3)CC1 (centres unmarked) [Compound 65, 7-Methyl-6-(1-((3-methyl-2,3-dihydrobenzofuran-5-yl)sulfonyl)-1,2,3,6-tetrahydropyridin-4-yl)[1,2,4]triazolo[1,5-a]pyridine] | 384 nM |
| Cc1nn(C)cc1S(=O)(=O)N1CCC(c2ccc3ncnn3c2)CC1 [Compound 63, 6-(1-((1,3-dimethyl-1H-pyrazol-4-yl)sulfonyl)piperidin-4-yl)-[1,2,4]triazolo[1,5-a]pyridine] | > 10000 nM |
| COc1ccc(S(=O)(=O)N2CCC(c3cn4ncnc4cc3C)CC2)cc1C(F)(F)F [Compound 130, 6-(1-((4-methoxy-3-(trifluoromethyl)phenyl)sulfonyl)piperidin-4-yl)-7-methyl-[1,2,4]triazoto[1,5-a]pyridine] | > 10000 nM |
| Cc1c(S(=O)(=O)N2CCC(c3cn4ncnc4cc3F)CC2)c(Cl)nn1C [Compound 329, 6-(1-((3-chloro-1,5-dimethyl-1H-pyrazol-4-yl)sulfonyl)piperidin-4-yl)-7-fluoro-[1,2,4]triazolo[1,5-a]pyridine] | 87 nM |
| Cc1cc2ncnn2nc1C1CCN(S(=O)(=O)c2ccc3c(c2)CCO3)CC1 [Compound 164, 6-(1-((2,3-dihydrobenzofuran-5-yl)sulfonyl)piperidin-4-yl)-7-methyl-[1,2,4]triazolo[1,5-b]pyridazine] | 5900 nM |
| Cc1cc2ncnn2nc1C1CCN(S(=O)(=O)c2ccc3c(c2)N(C)CCO3)CC1 [Compound 166, 4-methyl-6-((4-(7-methyl-[1,2,4]triazolo[1,5-b]pyridazin-6-yl)piperidin-1-yl)sulfonyl)-3,4-dihydro-2H-benzo[b][1,4]oxazine] | 1600 nM |
| Cc1cc2ncnn2cc1C1CCN(S(=O)(=O)c2ccc3c(c2)N(C)CCO3)CC1 [Compound 121, 4-methyl-6-((4-(7-methyl-[1,2,4]triazolo[1,5-a]pyridin-6-yl)piperidin-1-yl)sulfonyl)-3,4-dihydro-2H-benzo[b][1,4]oxazine] | 343 nM |
| Cc1cc2nccnc2cc1C1=CCN(S(=O)(=O)c2cnn(C)c2C)CC1 [Compound 354, 6-(1((1,5-dimethyl-1H-pyrazol-4-yl)sulfonyl)-1,2,3,6-tetrahydropyridin-4-yl)-7-methylquinoxaline] | 64 nM |
| O=S(=O)(c1ccc2c(c1)CCO2)N1CCC(c2nc3cc(F)ccc3[nH]2)CC1 [Compound 5, 2-(1-((2,3-dihydrobenzofuran-5-yl)sulfonyl)piperidin-4-yl)-5-fluoro-in-benzo[d]imidazole] | > 10000 nM |
| Cc1cc2ncnn2nc1C1CCN(S(=O)(=O)c2cnn(C)c2C)CC1 [Compound 165, 6-(1-((1,5-dimethyl-1H-pyrazol-4-yl)sulfonyl)piperidin-4-yl)-7-methyl-[1,2,4]triazolo[1,5-b]pyridazine] | 60 nM |
| Cc1cc2nccn2nc1C1CCN(S(=O)(=O)c2ccc3c(c2)OCO3)CC1 [Compound 40, 6-(1-(benzo[d][1,3]dioxol-5-ylsulfonyl)piperidin-4-yl)-7-methylimidazo[1,2-b]pyridazine] | > 10000 nM |
| Cc1nc(C)c(S(=O)(=O)N2CCC(c3cn4ncnc4cc3F)CC2)s1 [Compound 235, 5-((4-(7-fluoro-[1,2,4]triazolo[1,5-a]pyridin-6-yl)piperidin-1-yl)sulfonyl)-2,4-dimethylthiazole] | > 10000 nM |

same assay, conditions: CELL LINE hM5; vs EC80 acetylcholine; read-out: IC50

| SMILES | IC50 |
| --- | --- |
| CCc1cc2ncnn2cc1C1CCN(S(=O)(=O)c2cn(C)nn2)CC1 [Compound 562, 7-ethyl-6-(1-((1-methyl-1H-1,2,3-triazol-4-yl)sulfonyl)piperidin-4-yl)-[1,2,4]triazolo[1,5-a]pyridine] | 972 nM |
| Cc1cc2ncnn2cc1C1CCN(S(=O)(=O)c2cnn(C)c2N2CCOCC2)CC1 [Compound 622, 4-(1-Methyl-4-((4-(7-methyl-[1,2,4]triazolo[1,5-a]pyridin-6-yl)piperidin-1-yl)sulfonyl)-1H-pyrazol-5-yl)morpholine] | 1970 nM |
| Cc1c(C2CCN(S(=O)(=O)c3cnn(C)c3C#N)CC2)cn2ncnc2c1F [Compound 438, 4-((4-(8-flooro-7-methyl-[1,2,4]triazolo[1,5-a]pyridin-6-yl)piperidin-1-yl)sulfonyl)-1-methyl-1H-pyrazole-5-carbonitrile] | 26 nM |
| Cc1cc(N(C)C)ncc1C1CCN(S(=O)(=O)c2cnc3sccn23)CC1 [Compound 566, 5-(1-(imidazo[2,1-b]thiazol-5-ylsulfonyl)piperidin-4-yl)-N,N,4-trimethylpyridin-2-amine] | 16 nM |
| Cc1cc2ncnn2cc1C1(F)CCN(S(=O)(=O)c2cnn3c2OCCC3)CC1 [Compound 421, 3-((4-fluoro-4-(7-methyl-[1,2,4]triazolo[1,5-a]pyridin-6-yl)piperidin-1-yl)sulfonyl)-6,7-dihydro-5H-pyrazolo[5,1-b][1,3]oxazine] | 69 nM |
| COc1c(S(=O)(=O)N2CCC(c3cn4ncnc4cc3C(F)(F)F)CC2)cnn1C [Compound 585, 6-(1-((5-methoxy-1-methyl-1H-pyrazol-4-yl)sulfonyl)piperidin-4-yl)-7-(trifluoromethyl)-[1,2,4]triazolo[1,5-a]pyridine] | 67 nM |
| Cc1ncc(S(=O)(=O)N2CCC(c3cn4ncnc4c(F)c3C)CC2)o1 [Compound 486, 5-((4-(8-fluoro-7-methyl-[1,2,4]triazolo[1,5-a]pyridin-6-yl)piperidin-1-yl)sulfonyl)-2-methyloxazole] | 318 nM |
| Cc1ncc(S(=O)(=O)N2CCC(c3cc(F)c4ncnn4c3)CC2)n1C [Compound 467, 6-(1-((1,2-dimethyl-1H-imidazol-5-yl)sulfonyl)piperidin-4-yl)-8-fluoro-[1,2,4]triazolo[1,5-a]pyridine] | 4140 nM |
| CCc1cc2ncnn2cc1C1CCN(S(=O)(=O)c2cnc(C)o2)CC1 [Compound 496, 5-((4-(7-ethyl-[1,2,4]triazolo[1,5-a]pyridin-6-yl)piperidin-1-yl)sulfonyl)-2-methyloxazole] | 889 nM |
| Cc1cc2ncnn2cc1C1CCN(S(=O)(=O)c2cnn(C)c2OC(C)C)CC1 [Compound 603, 6-(1-((5-isopropoxy-1-methyl-1H-pyrazol-4-yl)sulfonyl)piperidin-4-yl)-7-methyl-[1,2,4]triazolo[1,5-a]pyridine] | 244 nM |
